Reference: patent US8895599B2, “Lipoprotein lipase-activating compositions comprising benzene derivates” (Otsuka Pharmaceutical Factory, Inc., priority 2008, dated 2014)

Columns and labels:
[1] = Therapeutical effect on olive oil-induced triglyceride hyperlipidemia models; assay type: in vivo; conditions: once a day for one week, SD rats, 2 h after olive oil
Method: Test of Therapeutical Effect on Olive Oil-Induced Triglyceride Hyperlipidemia Models
To conduct this test, 6-week-old SD rats (purchased from Charles River Japan) were used.
According to the body weight of the test rats when they were 5 weeks old, the test rats were divided into test groups and a control group with 6 rats per group.
A predetermined amount of each compound prepared in the Examples was measured and placed in an agate mortar. While 5% aqueous gum arabic solution was gradually introduced to the mortar, the compound was uniformly ground and suspended. Test samples were prepared by further adding 5% aqueous gum arabic solution gradually. Subsequently, these test samples were subjected to ultrasonic washing for 10 minutes to homogenize. Test samples were prepared as and when necessary.
The rats of the test groups were orally administered with the compounds of the invention such that rats received the compounds in an amount of 10, 30, or 100 mg/kg. The compounds of the invention were formulated as 5% gum arabic suspensions as described above.
The rats of the control group were orally administered with 5% aqueous gum arabic solution (not containing the compounds of the invention) in an amount of 5 ml/kg body weight. Administration was conducted once a day continuously for one week at a specific time of day after the rats reached 6 weeks of age. This test was performed under non-fasting conditions (rats had free access to feed and water), and the rats were fasted after the final administration of the compounds or 5% aqueous gum arabic solution.
Two hours after the final administration, olive oil was orally administered to the rats from both groups in an amount of 3 ml/kg body weight.
Two hours after the olive oil administration, blood was collected from the abdominal aorta of the rats of the respective groups using a heparinized syringe. The plasma was centrifugally separated from the blood at a temperature of 4° C., and the triglyceride level of the plasma was measured. A Hitachi 7170 automatic analyzer was used as the measuring instrument. Using the values measured from the test groups and control group, the decrease (%) in plasma triglyceride level was calculated according to the following equation: Decrease (%) in plasma triglyceride concentration=(1−E/C)×100 wherein E represents the average plasma triglyceride level in each test group; and C represents the average plasma triglyceride level in the control group.

[2] = Anti-obesity test using Zucker fatty rats; assay type: in vivo; conditions: 100 mg/kg oral, once a day over 4 weeks, relative to control group
Description: Anti-Obesity Test Using Zucker Fatty Rats
Zucker fatty rats are obese rats discovered by Zucker et al., in 1961 as mutants among 13 M rats, which are a hybrid between 13C and M rats. These rats (fa/fa) start to appear distinctly obese from normal broods around the age of 3 weeks. As they age, the weight difference between the fatty rats and normal rats increases. Zucker fatty rats are currently kept by a variety of organizations as simple obesity models, and are readily obtainable.
This test was performed using this rat model to evaluate the anti-obesity action of the compounds of the invention. The preparation method of test samples and the test procedures are described below:
The test samples were prepared in the same manner as in Test Example 2.
Zucker fatty rats and lean rats (both from Charles River Japan) were purchased at the age of 5 weeks. They were divided into groups (10 rats per group) according to body weight when they reached 6 weeks old. After acclimatization, the administration of test samples was initiated when the rats reached 8 weeks old. Test samples were orally administered using an oral gavage so that the compounds of the invention contained in the test samples were given in an amount of 100 mg/kg body weight (test sample dosage: 5 ml/kg body weight). The test samples were administered once a day over 4 weeks at a specific time of day.
As a control, a group of rats were administered with the same amount of 5% aqueous gum arabic solution (5 ml/kg body weight) instead of the test samples.
The rats of all groups were weighed on the last day of administration. The average body weight of the rats of each test group was compared with the average body weight (standard weight) of the rats of the control group to obtain the weight variations (differences). The weight differences were expressed as percentages in relation to the standard weight. The values thus calculated are referred to as “weight change %”. When a weight difference is negative relative to the standard weight, weight change % is shown with “−” (minus).
During the test period, the rats of the respective groups had free access to rat feed (“CRF-1”, manufactured by Oriental Yeast, Co., Ltd.) and water (tap water).

COc1cc(-c2cn3ccccc3n2)ccc1OCc1ccc(Cl)cc1 [Example 10]
Decrease in plasma triglyceride level (%) ([1]; 10 mg/kg oral): 48% | Decrease in plasma triglyceride level (%) ([1]; 30 mg/kg oral): 67% | Decrease in plasma triglyceride level (%) ([1]; 100 mg/kg oral): 74% | Weight Change (%) [2]: −15%
